± gives the uncertainty stated by the source.
Assay: xn = mol fraction of the nth substance listed

C=Cc1ccccc1 + CS(C)=O
viscosity [mPa·s], 101.33 kPa
Settings	x1 = 0.1017	x1 = 0.2022	x1 = 0.3096	x1 = 0.3987	x1 = 0.501	x1 = 0.6007	x1 = 0.6968	x1 = 0.801	x1 = 0.896
298.15 K	1.642 ± 0.011	1.475 ± 0.01	1.326 ± 0.009	1.237 ± 0.008	1.139 ± 0.008	1.058 ± 0.007	0.982 ± 0.007	0.887 ± 0.006	0.802 ± 0.005
303.15 K	1.482 ± 0.01	1.343 ± 0.009	1.191 ± 0.008	1.112 ± 0.007	1.044 ± 0.007	0.976 ± 0.007	0.91 ± 0.006	0.827 ± 0.006	0.749 ± 0.005
308.15 K	1.335 ± 0.009	1.204 ± 0.008	1.083 ± 0.007	1.014 ± 0.007	0.957 ± 0.007	0.899 ± 0.006	0.837 ± 0.006	0.763 ± 0.005	0.7 ± 0.005

CCCCCCCCO + CS(C)=O
101 kPa
Settings	viscosity [mPa·s]
303.15 K, x2 = 0.1888	4.267 ± 0.052
303.15 K, x2 = 0.3612	3.296 ± 0.041
303.15 K, x2 = 0.519	2.593 ± 0.032
303.15 K, x2 = 0.6642	2.26 ± 0.028
303.15 K, x2 = 0.7982	1.965 ± 0.025
303.15 K, x2 = 0.9223	1.757 ± 0.022
313 K, x2 = 0.1243	3.69 ± 0.096
313 K, x2 = 0.2177	3.282 ± 0.086
313 K, x2 = 0.4192	2.668 ± 0.069
313 K, x2 = 0.5194	2.442 ± 0.063
313 K, x2 = 0.6221	2.22 ± 0.058
313 K, x2 = 0.714	2.034 ± 0.053
313 K, x2 = 0.8145	1.894 ± 0.049
313 K, x2 = 0.902	1.664 ± 0.043

O=c1oc2ccccc2c(O)c1C(c1ccccc1)c1c(O)c2ccccc2oc1=O + CS(C)=O
viscosity [mPa·s], 100 kPa
Settings	x1 = 0.0007822	x1 = 0.001562	x1 = 0.002337	x1 = 0.003116	x1 = 0.003894	x1 = 0.004664
293.15 K	2.346 ± 0.14	2.469 ± 0.15	2.592 ± 0.16	2.715 ± 0.17	2.839 ± 0.17	2.963 ± 0.18
298.15 K	2.068 ± 0.13	2.179 ± 0.13	2.286 ± 0.14	2.394 ± 0.15	2.502 ± 0.15	2.611 ± 0.16
303.15 K	1.883 ± 0.12	1.966 ± 0.12	2.063 ± 0.13	2.161 ± 0.13	2.256 ± 0.14	2.352 ± 0.14
308.15 K	1.684 ± 0.1	1.755 ± 0.11	1.825 ± 0.11	1.909 ± 0.12	1.992 ± 0.12	2.076 ± 0.13
313.15 K	1.519 ± 0.093	1.578 ± 0.097	1.638 ± 0.1	1.713 ± 0.11	1.789 ± 0.11	1.862 ± 0.11

CCC(C)(C)OC + Cc1cccc(C)c1
viscosity [mPa·s], 100 kPa
Settings	x1 = 0.0521	x1 = 0.1462	x1 = 0.2667	x1 = 0.4165	x1 = 0.4774	x1 = 0.5331	x1 = 0.6068	x1 = 0.7371	x1 = 0.8642	x1 = 0.9512
293.15 K	0.603 ± 0.03	0.584 ± 0.03	0.563 ± 0.03	0.539 ± 0.03	0.53 ± 0.03	0.521 ± 0.03	0.509 ± 0.03	0.487 ± 0.03	0.464 ± 0.03	0.448 ± 0.03
303.15 K	0.542 ± 0.03	0.531 ± 0.03	0.518 ± 0.03	0.499 ± 0.03	0.489 ± 0.03	0.48 ± 0.03	0.468 ± 0.03	0.447 ± 0.03	0.426 ± 0.03	0.417 ± 0.03
313.15 K	0.484 ± 0.03	0.47 ± 0.03	0.455 ± 0.03	0.439 ± 0.03	0.433 ± 0.03	0.427 ± 0.03	0.419 ± 0.03	0.404 ± 0.03	0.386 ± 0.03	0.375 ± 0.03

BrC(Br)Br + Cc1ccccc1
viscosity [mPa·s], 101 kPa
Settings	x1 = 0.1032	x1 = 0.1993	x1 = 0.2989	x1 = 0.3999	x1 = 0.4985	x1 = 0.5956	x1 = 0.6977	x1 = 0.7959	x1 = 0.8985
298.15 K	0.6593 ± 0.0074	0.7557 ± 0.0079	0.8686 ± 0.0086	0.9945 ± 0.0094	1.136 ± 0.01	1.287 ± 0.012	1.449 ± 0.013	1.622 ± 0.015	1.801 ± 0.016
303.15 K	0.6236 ± 0.0071	0.7133 ± 0.0076	0.817 ± 0.0083	0.936 ± 0.009	1.068 ± 0.0099	1.207 ± 0.011	1.358 ± 0.012	1.519 ± 0.014	1.688 ± 0.015
308.15 K	0.5877 ± 0.007	0.6722 ± 0.0074	0.7592 ± 0.0079	0.8765 ± 0.0086	1.001 ± 0.0094	1.131 ± 0.01	1.273 ± 0.012	1.426 ± 0.013	1.583 ± 0.014
313.15 K	0.5544 ± 0.0068	0.6324 ± 0.0072	0.7238 ± 0.0076	0.8262 ± 0.0083	0.939 ± 0.009	1.061 ± 0.0098	1.194 ± 0.011	1.335 ± 0.012	1.483 ± 0.013

CC(C)(C)N + Cc1ccccc1
303.15 K, 101 kPa
Settings	viscosity [mPa·s]
x2 = 0.1549	0.4385 ± 0.0039
x2 = 0.2226	0.4405 ± 0.0039
x2 = 0.3039	0.4431 ± 0.004
x2 = 0.3981	0.4489 ± 0.004
x2 = 0.522	0.458 ± 0.0041
x2 = 0.6221	0.4693 ± 0.0042
x2 = 0.7184	0.4824 ± 0.0043
x2 = 0.8751	0.5067 ± 0.0045

CCCCCCCCO + Cc1ccccc1
viscosity [mPa·s], 101 kPa
Settings	298.15 K	308.15 K
x2 = 0.0495	6.43 ± 0.036	4.918 ± 0.029
x2 = 0.1104	5.45 ± 0.032	4.28 ± 0.026
x2 = 0.1513	4.841 ± 0.029	3.853 ± 0.023
x2 = 0.1999	4.2 ± 0.025	3.402 ± 0.021
x2 = 0.2517	3.646 ± 0.022	3.009 ± 0.018
x2 = 0.2997	3.252 ± 0.02	2.674 ± 0.017
x2 = 0.356	2.717 ± 0.017	2.317 ± 0.014
x2 = 0.3998	2.395 ± 0.015	2.048 ± 0.013
x2 = 0.4506	2.092 ± 0.013	1.825 ± 0.012
x2 = 0.5001	1.84 ± 0.012	1.637 ± 0.01
x2 = 0.5513	1.598 ± 0.01	1.42 ± 0.009
x2 = 0.6014	1.404 ± 0.009	1.272 ± 0.008
x2 = 0.6495	1.244 ± 0.008	1.119 ± 0.007
x2 = 0.6997	1.098 ± 0.007	1.015 ± 0.007
x2 = 0.7569	0.96 ± 0.007	0.87 ± 0.006
x2 = 0.8012	0.859 ± 0.006	0.779 ± 0.006
x2 = 0.8527	0.769 ± 0.006	0.699 ± 0.005
x2 = 0.9	0.674 ± 0.005	0.61 ± 0.005
x2 = 0.954	0.612 ± 0.005	0.554 ± 0.005

BrC(Br)Br + ClC(Cl)(Cl)Cl
Settings	viscosity [mPa·s]
298 K, 101.3 kPa, x1 = 0.1194	0.965 ± 0.01
298 K, 101.3 kPa, x1 = 0.2186	1.037 ± 0.011
298 K, 101.3 kPa, x1 = 0.3128	1.115 ± 0.012
298 K, 101.3 kPa, x1 = 0.4431	1.231 ± 0.014
298 K, 101.3 kPa, x1 = 0.5248	1.308 ± 0.015
298 K, 101.3 kPa, x1 = 0.6217	1.397 ± 0.016
298 K, 101.3 kPa, x1 = 0.7153	1.477 ± 0.018
298 K, 101.3 kPa, x1 = 0.8068	1.609 ± 0.02
298 K, 101.3 kPa, x1 = 0.8986	1.753 ± 0.022
318 K, 101.33 kPa, x1 = 0.1597	0.8215 ± 0.039
318 K, 101.33 kPa, x1 = 0.3179	0.9131 ± 0.039
318 K, 101.33 kPa, x1 = 0.5191	1.056 ± 0.039
318 K, 101.33 kPa, x1 = 0.6651	1.164 ± 0.039
318 K, 101.33 kPa, x1 = 0.8607	1.328 ± 0.039

C=Cc1ccccc1 + ClC(Cl)Cl
viscosity [mPa·s], 101.33 kPa
Settings	x1 = 0.101	x1 = 0.2004	x1 = 0.3009	x1 = 0.4022	x1 = 0.5055	x1 = 0.5997	x1 = 0.705	x1 = 0.7962	x1 = 0.9
298.15 K	0.5838 ± 0.0081	0.6109 ± 0.0084	0.6357 ± 0.0086	0.6615 ± 0.0089	0.6849 ± 0.0091	0.7054 ± 0.0093	0.7267 ± 0.0096	0.7443 ± 0.0097	0.7286 ± 0.0095
303.15 K	0.5575 ± 0.0078	0.5816 ± 0.0081	0.6033 ± 0.0083	0.628 ± 0.0085	0.6463 ± 0.0087	0.6686 ± 0.0089	0.6832 ± 0.0091	0.6993 ± 0.0092	0.6841 ± 0.0091
308.15 K	0.5324 ± 0.0075	0.5513 ± 0.0077	0.5742 ± 0.008	0.5915 ± 0.0081	0.6109 ± 0.0083	0.6272 ± 0.0085	0.6447 ± 0.0087	0.6581 ± 0.0088	0.6521 ± 0.0087

— the CheMixHub viscosity set
